Results from patent publication US12421229B2, “Hydropyrido[1,2-α]pyrazine compounds for the treatment of autoimmune disease” (Hoffmann-La Roche Inc., priority 2019, dated 2025).

Molecular target: T1, human TLR7 (Homo sapiens, UniProt Q9NYK1)
T1 construct: host or cells: HEK293 (HEK-Blue hTLR7)
T1 sequence (Q9NYK1 27-1049): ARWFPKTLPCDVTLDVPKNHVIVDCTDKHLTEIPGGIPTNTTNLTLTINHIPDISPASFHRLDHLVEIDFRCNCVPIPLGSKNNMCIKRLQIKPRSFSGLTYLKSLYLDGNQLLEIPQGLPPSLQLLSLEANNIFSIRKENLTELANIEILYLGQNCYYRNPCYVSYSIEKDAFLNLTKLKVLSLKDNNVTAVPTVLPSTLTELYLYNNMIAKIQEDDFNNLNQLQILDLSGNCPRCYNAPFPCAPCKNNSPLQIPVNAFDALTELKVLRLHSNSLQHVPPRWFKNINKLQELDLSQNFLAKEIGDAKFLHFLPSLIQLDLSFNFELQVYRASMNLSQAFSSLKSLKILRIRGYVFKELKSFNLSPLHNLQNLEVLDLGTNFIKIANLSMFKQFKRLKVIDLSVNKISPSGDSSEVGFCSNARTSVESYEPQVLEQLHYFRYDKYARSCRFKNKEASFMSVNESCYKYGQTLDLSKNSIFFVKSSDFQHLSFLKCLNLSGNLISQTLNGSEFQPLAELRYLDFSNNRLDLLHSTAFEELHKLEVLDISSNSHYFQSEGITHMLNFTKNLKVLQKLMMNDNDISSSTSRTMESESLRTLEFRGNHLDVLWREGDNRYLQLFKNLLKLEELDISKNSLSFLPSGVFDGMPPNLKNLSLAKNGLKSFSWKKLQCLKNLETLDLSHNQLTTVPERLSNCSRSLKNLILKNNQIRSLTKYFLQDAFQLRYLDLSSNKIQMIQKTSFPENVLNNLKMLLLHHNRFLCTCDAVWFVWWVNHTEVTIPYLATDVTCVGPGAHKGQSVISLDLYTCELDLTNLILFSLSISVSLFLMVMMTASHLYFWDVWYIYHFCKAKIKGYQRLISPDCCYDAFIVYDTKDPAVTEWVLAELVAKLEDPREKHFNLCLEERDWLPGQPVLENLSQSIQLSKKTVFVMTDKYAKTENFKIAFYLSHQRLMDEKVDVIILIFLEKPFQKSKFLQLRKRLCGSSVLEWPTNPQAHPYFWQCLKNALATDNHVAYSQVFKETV
Assay: HEK293-Blue-hTLR-7 cells assay
Format: cell-based
Settings: HEK293-Blue-hTLR7 cells, R848 stimulation, 20 hrs, SEAP reporter; read-out: HEK/hTLR7 IC50
Source text: A stable HEK293-Blue-hTLR-7 cell line was purchased from InvivoGen (Cat. #: hkb-htlr7, San Diego, California, USA). These cells were originally designed for studying the stimulation of human TLR7 by monitoring the activation of NF-κB. A SEAP (secreted embryonic alkaline phosphatase) reporter gene was placed under the control of the IFN-β minimal promoter fused to five NF-κB and AP-1-binding sites. The SEAP was induced by activating NF-κB and AP-1 via stimulating HEK-Blue hTLR7 cells with TLR7 ligands. Therefore the reporter expression was declined by TLR7 antagonist under the stimulation of a ligand, such as R848 (Resiquimod), for incubation of 20 hrs. The cell culture supernatant SEAP reporter activity was determined using QUANTI-Blue™ kit (Cat. #: rep-qb1, Invivogen, San Diego, Ca, USA) at a wavelength of 640 nm, a detection medium that turns purple or blue in the presence of alkaline phosphatase.
HEK293-Blue-hTLR7 cells were incubated at a density of 250,000˜450,000 cells/mL in a volume of 170 μL in a 96-well plate in Dulbecco's Modified Eagle's medium (DMEM) containing 4.5 g/L glucose, 50 U/mL penicillin, […], […], 2 mM L-glutamine, 10% (v/v) heat-inactivated fetal bovine serum with addition of 20 μL test compound in a serial dilution in the presence of final DMSO at 1% and 10 μL of 20 uM R848 in above DMEM, perform incubation under 37° C. in a CO2 incubator for 20 hrs. Then 20 μL of the supernatant from each well was incubated with 180 μL Quanti-blue substrate solution at 37° C. for 2 hrs and the absorbance was read at 620˜655 nm using a spectrophotometer. The signaling pathway that TLR7 activation leads to downstream NF-κB activation has been widely accepted, and therefore similar reporter assay was modified for evaluating TLR7 antagonist.

Row | SMILES | IC50
1 | C[C@@H]1CN(c2ccc(C#N)c3ncccc23)C[C@@H]2C[C@@H](c3ccc(C4CNCCO4)cc3)CCN21 (stereo partly drawn) [Example 24, 5-[(4R,8S,9aS)-4-methyl-8-(4-morpholin-2-ylphenyl)-1,3,4,6,7,8,9,9a-octahydropyrido[1,2-a]pyrazin-2-yl]quinoline-8-carbonitrile] | 0.004 µM
2 | C[C@@H]1CN(c2ccc(C#N)c3ncccc23)C[C@@H]2C[C@H](N3CC(c4ccc(N5CCNCC5)cc4)C3)CCN21 [Example 9, 5-[(4R,8R,9aS)-4-methyl-8-[3-(4-piperazin-1-ylphenyl)azetidin-1-yl]-1,3,4,6,7,8,9,9a-octahydropyrido[1,2-a]pyrazin-2-yl]quinoline-8-carbonitrile] | 0.027 µM
3 | C[C@@H]1CN(c2ccc(C#N)c3ncccc23)CC2C[C@H](c3ccc(N4CCNCC4)cc3)CCN21 (stereo partly drawn) [Example 3, 5-[(4R,8R)-4-methyl-8-(4-piperazin-1-ylphenyl)-1,3,4,6,7,8,9,9a-octahydropyrido[1,2-a]pyrazin-2-yl]quinoline-8-carbonitrile] | 0.01 µM
4 | C[C@@H]1CN(c2ccc(C#N)c3ncccc23)C[C@@H]2C[C@H](Nc3ccc(C[C@@H]4CNCCO4)cc3)CCN21 [Example 21, 5-[(4R,8R,9aS)-4-methyl-8-[4-[[(2R)-morpholin-2-yl]methyl]anilino]-1,3,4,6,7,8,9,9a-octahydropyrido[1,2-a]pyrazin-2-yl]quinoline-8-carbonitrile] | 0.02 µM
5 | CO[C@@H]1CN(c2ccc([C@@H]3CCN4[C@@H](C3)CN(c3ccc(C#N)c5ncccc35)C[C@H]4C)cn2)C[C@H]1N [Example 14, 5-[(4R,8R,9aS)-8-[6-[(3R,4R)-3-amino-4-methoxy-pyrrolidin-1-yl]-3-pyridyl]-4-methyl-1,3,4,6,7,8,9,9a-octahydropyrido[1,2-a]pyrazin-2-yl]quinoline-8-carbonitrile] | 0.023 µM
6 | C[C@@H]1CN(c2ccc(C#N)c3ncccc23)C[C@@H]2C[C@H](NCc3ccc(N4CCNCC4)cc3)CCN21 [Example 1, 5-[(4R,8R,9aS)-4-methyl-8-[(4-piperazin-1-ylphenyl)methylamino]-1,3,4,6,7,8,9,9a-octahydropyrido[1,2-a]pyrazin-2-yl]quinoline-8-carbonitrile] | 0.033 µM
7 | C[C@@H]1CN(c2ccc(C#N)c3ncccc23)C[C@@H]2C[C@H](c3ccc(N4CC(N)C4)nc3)CCN21 [Example 7, 5-[(4R,8R,9aS)-8-[6-(3-aminoazetidin-1-yl)-3-pyridyl]-4-methyl-1,3,4,6,7,8,9,9a-octahydropyrido[1,2-a]pyrazin-2-yl]quinoline-8-carbonitrile] | 0.032 µM

Continued, values first:

Row | IC50 | SMILES
8 | 0.048 µM | CO[C@H]1CN(c2ccc(C3CN([C@@H]4CCN5[C@@H](C4)CN(c4ccc(C#N)c6ncccc46)C[C@H]5C)C3)cc2)C[C@H]1N [Example 32, 5-[(4R,8R,9aS)-8-[3-[4-[(3R,4S)-3-amino-4-methoxy-pyrrolidin-1-yl]phenyl]azetidin-1-yl]-4-methyl-1,3,4,6,7,8,9,9a-octahydropyrido[1,2-a]pyrazin-2-yl]quinoline-8-carbonitrile]
9 | 0.011 µM | [2H]c1ccc2c(N3C[C@@H]4C[C@H](N5CCN(c6ccncc6)CC5)CCN4[C@H](C)C3)ccc(C#N)c2n1 [Example 37, 5-[(4R,8R,9aS)-4-methyl-8-[4-(4-pyridyl)piperazin-1-yl]-1,3,4,6,7,8,9,9a-octahydropyrido[1,2-a]pyrazin-2-yl]-2-deuterio-quinoline-8-carbonitrile]
10 | 0.03 µM | [2H]c1ccc2c(N3C[C@@H]4C[C@@H](N5CC(c6ccc(N7C[C@@H](N)[C@H](OC)C7)cc6)C5)CCN4[C@H](C)C3)ccc(C#N)c2n1 [Example 36]
11 | 0.047 µM | CO[C@H]1CN(c2ccc(O[C@H]3CCN4[C@@H](C3)CN(c3ccc(C#N)c5ncccc35)C[C@H]4C)cn2)C[C@H]1N [Example 28, 5-[(4R,8S,9aS)-8-[[6-[(3R,4S)-3-amino-4-methoxy-pyrrolidin-1-yl]-3-pyridyl]oxy]-4-methyl-1,3,4,6,7,8,9,9a-octahydropyrido[1,2-a]pyrazin-2-yl]quinoline-8-carbonitrile]
12 | 0.047 µM | [2H]c1ccc2c(N3C[C@@H]4C[C@H](Nc5ccc(C[C@H]6CNCCO6)cc5)CCN4[C@H](C)C3)ccc(C#N)c2n1 [Example 34, 5-[(4R,8R,9aS)-4-methyl-8-[4-[[(2S)-morpholin-2-yl]methyl]anilino]-1,3,4,6,7,8,9,9a-octahydropyrido[1,2-a]pyrazin-2-yl]-2-deuterio-quinoline-8-carbonitrile]
